The results in this text go back to publication PMC8498988, “Scaffold Hybridization Strategy Leads to the Discovery of Dopamine D3 Receptor-Selective or Multitarget Bitopic Ligands Potentially Useful for Central Nervous System Disorders” (ACS Chemical Neuroscience, 2021).

The target in assay [1] is 5-HT2AR (Homo sapiens, UniProt P28223). Kind of assay: 5-HT2A IP-1 formation (HEK-h5HT2A cells). Conditions: for % inhib., 5-HT2A IP-1 formation: antagonist mode, normalized to the inhibition by 10 μM ketanserin; for functional behavior at 5-HT2AR: in words.
Sequence of 5-HT2AR (P28223 whole entry): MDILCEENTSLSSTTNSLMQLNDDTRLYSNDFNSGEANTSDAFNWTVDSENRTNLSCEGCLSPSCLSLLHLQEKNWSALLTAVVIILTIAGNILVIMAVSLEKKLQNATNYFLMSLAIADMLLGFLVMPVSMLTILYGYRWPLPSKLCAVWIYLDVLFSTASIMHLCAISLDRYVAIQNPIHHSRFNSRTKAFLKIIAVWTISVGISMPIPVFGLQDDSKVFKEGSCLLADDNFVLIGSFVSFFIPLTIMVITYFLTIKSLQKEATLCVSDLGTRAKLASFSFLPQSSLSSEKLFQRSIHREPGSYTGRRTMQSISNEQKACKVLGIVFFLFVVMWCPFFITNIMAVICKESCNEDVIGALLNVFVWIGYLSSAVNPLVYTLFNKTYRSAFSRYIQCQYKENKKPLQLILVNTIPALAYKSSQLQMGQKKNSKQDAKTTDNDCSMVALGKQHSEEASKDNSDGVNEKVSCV
Method: HEK-h5HT2A or HEK-h5HT2C cells are used as the tissue source. The day before the experiment, cells are plated in 24-well plates at a density of 400,000 cells per well using DMEM supplemented with charcoal-stripped FetalClone. Drugs are made up in stimulation buffer supplied in the kit. Medium is removed from the well, test compounds or serotonin or antagonist or buffer is added, and the cells are incubated for 1 h. The cells are lysed for 30 min, and 50 μL of cell lysate is added to the IP-1 plates. After the addition of appropriate antibodies, the plates are incubated for 3 h, washed six times, incubated with the substrate for 20 min, and, after termination of the reaction, the plate is read on a plate reader at 450 nm with a correction at 620 nm.
Assay [2] concerns the target D2R (Homo sapiens, UniProt P14416). Nature of the assay: Radioligand competition binding at human D2R ([3H]N-methylspiperone, HEK293 membranes). The conditions noted are these: HEK 293 cells expressing hD2R, read-out: Ki ± SEM, D2R. More on the design: expressed in transfected cells; host or cells: HEK293. As for the experimental part:
The novel hybrid derivatives 3–11 were tested at hD2R, hD3R, or hD4R stably expressed in HEK293 cells by competition binding assays, using [^3H]N-methylspiperone as the radioligand, to evaluate their D2-like affinity and subtype selectivity, following the previously reported procedures.[41],[45],[46]
Binding at dopamine D2-like receptors was determined using previously described methods.[41],[45],[46] Membranes were prepared from HEK293 cells stably expressing human D2, D3, or D4, grown in a 50:50 mix of Dulbecco’s minimal essential medium (DMEM) and Ham’s F12 culture media, supplemented with 20 mM HEPES, 2 mM L-glutamine, 0.1 mM nonessential amino acids, 1× antibiotic/antimycotic, 10% heat-inactivated fetal bovine serum, and 200 μg/mL hygromycin (Life Technologies, Grand Island, NY) and kept in an incubator at 37 °C and 5% CO2. Upon reaching 80–90% confluency, the cells were harvested using premixed Earle’s Balanced Salt Solution (EBSS) with 5 μM EDTA (Life Technologies) and centrifuged at 3000 rpm for 10 min at 21 °C. The supernatant was removed, and the pellet was resuspended in 10 mL hypotonic lysis buffer (5 mM MgCl2, 5 mM Tris, pH 7.4 at 4 °C) and centrifuged at 20,000 rpm for 30 min at 4 °C. The pellet was then resuspended in fresh EBSS buffer made from 8.7 g/L Earle’s Balanced Salts without phenol red (US Biological, Salem, MA), 2.2 g/L sodium bicarbonate, pH to 7.4. A Bradford protein assay (Bio-Rad, Hercules, CA) was used to determine the protein concentration, and membranes were diluted to 500 μg/mL and stored at −80 °C for later use. Radioligand competition binding experiments were conducted using thawed membranes. Test compounds were freshly dissolved in 30% DMSO and 70% H2O to a stock concentration of 100 μM. To assist the solubilization of free-base compounds, 10 μL of glacial acetic acid was added along with DMSO. Each test compound was then diluted into 13 half-log serial dilutions using 30% DMSO vehicle; the final test concentrations ranged from 10 μM to 10 pM. The previously frozen membranes were diluted in fresh EBSS to a 100 μg/mL (for D2 or D3) or 200 μg/mL (D4) stock for binding. Radioligand competition experiments were conducted in glass tubes containing 300 μL of fresh EBSS buffer, 50 μL of diluted test compound, 100 μL of membranes (10 μg of total protein for D2 or D3 and 20 μg of total protein for D4), and 50 μL of [^3H]N-methylspiperone (0.4 nM final concentration; PerkinElmer). Nonspecific binding was determined using 10 μM butaclamol (Sigma-Aldrich, St. Louis, MO), and total binding was determined with the 30% DMSO vehicle. All compound dilutions were tested in triplicate and the reaction was incubated for 1 h at room temperature. The reaction was terminated by filtration through Whatman GF/B filters, presoaked for 1 h in 0.5% polyethylenimine, using a Brandel R48 filtering manifold (Brandel Instruments, Gaithersburg, MD). The filters were washed three times with 3 mL of ice-cold EBSS buffer and transferred to scintillation vials. CytoScint liquid scintillation cocktail (3 mL, MP Biomedicals, Solon, OH) was added, and vials were counted using a PerkinElmer Tri-Carb 2910 TR liquid scintillation counter (Waltham, MA).

For assay [3], the target named is T1, human 5-HT1AR (Homo sapiens, UniProt P08908).
T1 construct: expressed in transfected cells; host or cells: HeLa
T1 sequence (P08908 1-422): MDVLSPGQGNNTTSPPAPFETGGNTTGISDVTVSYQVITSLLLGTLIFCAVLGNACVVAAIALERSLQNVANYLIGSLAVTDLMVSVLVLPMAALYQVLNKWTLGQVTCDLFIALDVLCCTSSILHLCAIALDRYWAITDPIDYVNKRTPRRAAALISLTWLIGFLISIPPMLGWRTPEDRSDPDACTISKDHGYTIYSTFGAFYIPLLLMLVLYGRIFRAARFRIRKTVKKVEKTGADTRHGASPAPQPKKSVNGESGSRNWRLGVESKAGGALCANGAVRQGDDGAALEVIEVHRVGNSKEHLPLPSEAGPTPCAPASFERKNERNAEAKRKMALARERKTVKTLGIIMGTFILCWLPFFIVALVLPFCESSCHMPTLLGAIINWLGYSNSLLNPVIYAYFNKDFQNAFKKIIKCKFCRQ
Nature of the assay: 5-HT1A [35S]GTPγS binding assay (HeLa cell membranes). Type of assay: biochemical. Conditions: for EC50 / % stimul., 5-HT1A [35S]GTPγS binding: agonist mode; for % stimul., 5-HT1A [35S]GTPγS binding: standard agonist serotonin; for functional behavior at 5-HT1AR: in words. As for the experimental part: The effects of the various compounds tested on [^35S]GTPγS binding in HeLa cells expressing the recombinant human 5-HT1AR were evaluated according to the method of Stanton and Beer with minor modifications. The stimulation experiments are as follows: Cell membranes (50–70 μg of protein) were resuspended in buffer containing 20 mM HEPES, 3 mM MgSO4, and 120 mM NaCl (pH 7.4). […] The samples were transferred to ice, [^35S]GTPγS (200 pM) was added, and the samples were incubated for further 30 min at 30 °C. The preincubation with both agonist and antagonist, before initiating the [^35S]GTPγS binding, ensures that agonist and antagonist are at equilibrium. Nonspecific binding was determined in the presence of […]. Incubation was stopped by the addition of ice-cold HEPES buffer and rapid filtration on Unifilter B filters (PerkinElmer) using a Filtermate cell harvester (Packard). The filters were washed with ice-cold Hepes buffer, and the radioactivity retained on the filters was determined by a TopCount, PerkinElmer liquid scintillation counter at 90% efficiency.

Structures are written as SMILES.

Sequence of D2R (P14416 whole entry): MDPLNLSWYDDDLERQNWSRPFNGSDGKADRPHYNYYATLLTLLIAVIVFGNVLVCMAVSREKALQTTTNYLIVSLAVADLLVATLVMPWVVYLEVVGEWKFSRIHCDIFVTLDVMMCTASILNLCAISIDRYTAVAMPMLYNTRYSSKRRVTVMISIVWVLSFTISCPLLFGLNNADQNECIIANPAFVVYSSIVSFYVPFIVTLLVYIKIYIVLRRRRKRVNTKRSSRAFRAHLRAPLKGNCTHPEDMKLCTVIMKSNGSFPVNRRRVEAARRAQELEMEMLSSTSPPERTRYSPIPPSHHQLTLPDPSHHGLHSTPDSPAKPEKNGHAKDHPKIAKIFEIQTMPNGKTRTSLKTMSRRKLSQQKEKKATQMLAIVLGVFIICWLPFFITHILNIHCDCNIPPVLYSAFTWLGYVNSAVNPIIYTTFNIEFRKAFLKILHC

On to `O=C(NCCCCN1CCN(c2cccc(Cl)c2Cl)CC1)C1COCC(c2ccccc2)(c2ccccc2)O1` (centres unmarked) [compound 3, N-(4-(4-(2,3-Dichlorophenyl)piperazin-1-yl)butyl)-6,6-diphenyl-1,4-dioxane-2-carboxamide], for which, in assay [1], the “% inhib., 5-HT2A IP-1 formation” value was “(45.4) %”. Besides, the Ki in assay [2] was determined as 342 ± 105 nM. Besides, in assay [3], it took 232 ± 19 nM to reach a half-maximal effect (EC50); the “% stimul., 5-HT1A [35S]GTPγS binding” value is given as 82.7%; the “functional behavior at 5-HT1AR” value is recorded as 5-HT1AR full agonist.
For `O=C(NCCCCN1CCN(c2cccc(Cl)c2Cl)CC1)C1COC(c2ccccc2)(c2ccccc2)CO1` (centres unmarked) [compound 6, N-(4-(4-(2,3-Dichlorophenyl)piperazin-1-yl)butyl)-5,5-diphenyl-1,4-dioxane-2-carboxamide], in assay [1], the “% inhib., 5-HT2A IP-1 formation” value is on record as “(88.6) %”; the “functional behavior at 5-HT2AR” value was “efficacious D2R and 5-HT2AR antagonists with high and low potency, respectively”. The Ki in assay [2] was 28.7 ± 5.4 nM. Also, in assay [3], a half-maximal effect (EC50) was put at 23.9 ± 8.8 nM; the “% stimul., 5-HT1A [35S]GTPγS binding” value came to 90.8%; the “functional behavior at 5-HT1AR” value is “efficacious 5-HT1AR and D4R agonists with high potency”.
Turning to `O=C(NCCCCN1CCN(c2cccc(Cl)c2Cl)CC1)C1COc2ccccc2O1` (centres unmarked) [compound 9, N-(4-(4-(2,3-Dichlorophenyl)piperazin-1-yl)butyl)-2,3-dihydrobenzo[b][1,4]dioxine-2-carboxamide], in assay [1], the “% inhib., 5-HT2A IP-1 formation” value is on record as “(86.8) %”; the “functional behavior at 5-HT2AR” value is “efficacious D2R and 5-HT2AR antagonists with high and low potency, respectively”. Moreover, the Ki in assay [2] is 46.4 ± 5.9 nM. In assay [3], the concentration for a half-maximal effect (EC50) stood at 22.7 ± 0.82 nM; the “% stimul., 5-HT1A [35S]GTPγS binding” value was found to be 96.3%; the “functional behavior at 5-HT1AR” value is “efficacious 5-HT1AR and D4R agonists with high potency”.
